Source: patent US4091202A (Zaidan Hojin Biseibutsu Kagaku Kenkyu Kai, priority 1975, dated 1978)
In brackets after ≈: the same amount, converted by molar mass. Structures can show the parent of a compound that is named as a salt. Where two headings read alike, the source gives them in different places.

Legend:
Bacillus subtilis PCI219 = experiment: Minimum inhibitory concentration, serial dilution on nutrient agar; type: cell-based
Method: (§1) Minimum inhibitory concentrations (mcg/ml) of the new compounds of the invention to various bacteria are estimated according to a standard serial dilution method using nutrient agar as the incubation medium, the incubation being made at 37° C for 41 hours.

[1] = system: Escherichia coli K-12 JR66/W677; experiment: as above; type: cell-based; details: for M.I.C.: Escherichia coli K-12 JR66/W677, nutrient agar, 37° C, 41 hours; for MIC: Escherichia coli, K12JR66/W677, 41 h
Method: as §1

[2] = system: Escherichia coli K-12 MA290 R55; experiment: as above; type: cell-based; details: for M.I.C.: Escherichia coli K-12 MA290 R55, nutrient agar, 37° C, 41 hours; for MIC: Escherichia coli, K12MA290R55, 41 h
Method: as §1

[3] = system: Escherichia coli K-12 ML-1410; experiment: as above; type: cell-based; details: 41 hours; for M.I.C.: 37° C; for MIC: K12ML1410, 37° C
Method: as §1

[4] = system: Escherichia coli K-12 ML-1629; experiment: as above; type: cell-based; details: 41 hours; for M.I.C.: 37° C; for MIC: K12ML1629, 37° C
Method: as §1

[5] = system: Escherichia coli K-12 R81; experiment: as above; type: cell-based; details: for M.I.C.: Escherichia coli K-12 R81, nutrient agar, 37° C, 41 hours; for MIC: Escherichia coli, K12R81, 41 h
Method: as §1

[6] = system: Escherichia coli K-12 W677; experiment: as above; type: cell-based; details: 41 hours; for M.I.C.: 37° C; for MIC: K12W677, 37° C
Method: as §1

Escherichia coli K-12 = experiment: as above; type: cell-based
Method: as §1

[7] = system: Klebsiella pneumoniae PCI602; experiment: as above; type: cell-based; details: 37° C, 41 hours
Method: as §1

Mycobacterium 607 = experiment: as above; type: cell-based; details: 37° C, 41 hours
Method: as §1

Proteus vulgaris OX19 = experiment: as above; type: cell-based; details: 37° C, 41 hours
Method: as §1

[8] = system: Pseudomonas aeruginosa A3; experiment: as above; type: cell-based; details: 37° C, 41 hours
Method: as §1

[9] = system: Pseudomonas aeruginosa GN315; experiment: as above; type: cell-based
Method: as §1

[10] = system: Pseudomonas aeruginosa No.12; experiment: as above; type: cell-based; details: 37° C, 41 hours
Method: as §1

Shigella sonnei JS11746 = experiment: as above; type: cell-based; details: 37° C, 41 hours
Method: as §1

[11] = system: Staphylococcus aureus FDA 209P; experiment: as above; type: cell-based; details: for MIC: FDA209P
Method: as §1

Bacillus subtilis = experiment: Antibacterial potency by cup-assay method; type: cell-based; details: for antibacterial potency: assuming DKB (free base) has 1000 units/mg
[12] = system: Staphylococcus aureus Smith S-424; experiment: Therapeutic treatment of bacterial infection in mice (ED50); type: in vivo; details: mice infected i.p. with S. aureus Smith S-424, 27.8 × 10^4 cells, single intramuscular injection immediately after inoculation; for ED50: Staphylococcus aureus, SMITHS424, im
Method: Said inoculum is corresponding to a 860-fold quantity of the LD50 dosage of S.aureus Smith S-424. A solution of the test compound in sterile, isotonic sodium chloride solution was intramuscularly injected into the infected mice once immediately after the inoculation of the bacterium at dosages of 0.1 mg, 0.05 mg, 0.025 mg, 0.0125 mg and 0.0063 mg of the test compound per mouse.

mice = details: for LD50 value: intravenous, mice, six per group, 20% w/v in isotonic sodium chloride solution
in vivo = details: mouse, iv
[13] = system: some kanamycin-resistant bacteria and Pseudomonas aeruginosa; details: British Patent No. 1,349,302; cited from earlier work
[14] = Bacillus subtilis PCI219, nutrient agar, 37° C, 41 hours
[15] = Escherichia coli K-12, nutrient agar, 37° C, 41 hours
[16] = Pseudomonas aeruginosa GN315, nutrient agar, 37° C, 41 hours
[17] = Staphylococcus aureus FDA 209P, nutrient agar, 37° C, 41 hours
[18] = Bacillus subtilis PCI219, nutrient agar, 37° C, 41 hours, read-out: M.I.C.
[19] = Pseudomonas aeruginosa GN315, nutrient agar, 37° C, 41 hours, read-out: M.I.C.
[20] = Staphylococcus aureus FDA 209P, nutrient agar, 37° C, 41 hours, read-out: M.I.C.

Molecule | M.I.C. (Bacillus subtilis PCI219; [14]) | M.I.C. [1] | M.I.C. [2] | M.I.C. [3] | M.I.C. [4] | M.I.C. [5] | M.I.C. [6] | M.I.C. (Escherichia coli K-12; [15]) | M.I.C. [7] | M.I.C. (Mycobacterium 607) | M.I.C. (Proteus vulgaris OX19) | M.I.C. [8] | M.I.C. [9, 16] | M.I.C. [10] | M.I.C. (Shigella sonnei JS11746) | M.I.C. [11, 17] | LD50 value (mice) | MIC [1] | MIC [2] | MIC [4] | also measured
3',4'-Dideoxykanamycin B-di-N-methanesulfonic acid sodium salt [DKB-di-N-methanesulfonic acid Na salt] | < 0.2 µg/mL | 50 µg/mL | 50 µg/mL | 0.78 µg/mL | 0.78 µg/mL | 0.78 µg/mL | 0.78 µg/mL | 0.78 µg/mL | 0.39 µg/mL | 0.39 µg/mL | < 0.2 µg/mL | 0.78 µg/mL | > 100 µg/mL | 1.56 µg/mL | 0.78 µg/mL | < 0.2 µg/mL | 4250 mg/kg | – | – | – | antibacterial potency (Bacillus subtilis): 590 units/mg; ED50 value [12]: 1.15 mg/kg; acute toxicity relative to that of 3',4'-dideoxykanamycin B itself (mice; intravenous injection into mice, from Table 2): about 1/40
3',4'-Dideoxykanamycin B-di-N-methylmethane-sulfonic acid and its sodium salt | < 0.2 µg/mL | 50 µg/mL | 50 µg/mL | 0.78 µg/mL | 0.78 µg/mL | 0.78 µg/mL | 0.78 µg/mL | 0.78 µg/mL | 0.39 µg/mL | 0.39 µg/mL | < 0.2 µg/mL | 0.78 µg/mL | > 100 µg/mL | 1.56 µg/mL | 0.78 µg/mL | < 0.2 µg/mL | > 2000 mg/kg | – | – | – | –
3',4'-Dideoxykanamycin B-mono-N-methanesulfonic acid and its sodium salt [DKB-mono-N-methanesulfonic acid Na salt] | < 0.2 µg/mL | 50 µg/mL | 50 µg/mL | 0.78 µg/mL | 0.78 µg/mL | 0.78 µg/mL | 0.78 µg/mL | 0.78 µg/mL | 0.39 µg/mL | 0.39 µg/mL | < 0.2 µg/mL | 0.78 µg/mL | > 100 µg/mL | 1.56 µg/mL | 0.78 µg/mL | < 0.2 µg/mL | > 1500 mg/kg | – | – | – | –
3',4'-Dideoxykanamycin B-tri-N-methanesulfonic acid sodium salt [DKB-tri-N-methanesulfonic acid Na salt] | 0.2 µg/mL | 100 µg/mL | 100 µg/mL | 0.78 µg/mL | 0.78 µg/mL | 0.78 µg/mL | 0.78 µg/mL | 0.78 µg/mL | 0.39 µg/mL | 0.78 µg/mL | 0.39 µg/mL | 0.78 µg/mL | > 100 µg/mL | 3.12 µg/mL | 1.56 µg/mL | < 0.2 µg/mL | > 5000 mg/kg | – | – | – | –
O=S(=O)(O)C(NC[C@@H]1CC[C@@H](NC(c2ccccc2)S(=O)(=O)O)[C@@H](O[C@H]2[C@H](O)[C@@H](O[C@H]3O[C@H](CO)[C@@H](O)[C@H](NC(c4ccccc4)S(=O)(=O)O)[C@H]3O)[C@H](NC(c3ccccc3)S(=O)(=O)O)C[C@@H]2NC(c2ccccc2)S(=O)(=O)O)O1)c1ccccc1 (stereo partly drawn) [3',4'-Dideoxykanamycin B-penta-N-phenylmethanesulfonic acid sodium salt] | – | – | – | – | – | – | – | – | – | – | – | – | – | – | – | – | – | 100 µg/mL | 100 µg/mL | 0.39 µg/mL | MIC (Bacillus subtilis PCI219; [18]): 0.2 µg/mL; MIC [3]: 0.78 µg/mL; MIC [5]: 0.78 µg/mL; MIC [6]: 0.78 µg/mL; MIC (Escherichia coli K-12; K12, Escherichia coli K-12, nutrient agar, 37° C, 41 hours, read-out: M.I.C.): 0.78 µg/mL; MIC [7]: 0.39 µg/mL; MIC (Mycobacterium 607): 0.78 µg/mL; MIC (Proteus vulgaris OX19): 0.39 µg/mL; MIC [8]: 0.78 µg/mL; MIC [9, 19]: > 100 µg/mL; MIC [10]: 3.12 µg/mL; MIC (Shigella sonnei JS11746): 1.56 µg/mL; MIC [11, 20]: < 0.2 µg/mL; LD50 (in vivo): > 5000 mg/kg
NC[C@@H]1CC[C@@H](N)[C@@H](O[C@H]2[C@H](O)[C@@H](O[C@H]3O[C@H](CO)[C@@H](O)[C@H](N)[C@H]3O)[C@H](N)C[C@@H]2N)O1 [DKB, 3',4'-dideoxykanamycin B, reference compound] | – | – | – | – | – | – | – | – | – | – | – | – | – | – | – | – | – | 50 µg/mL (≈ 111 µM) | 50 µg/mL (≈ 111 µM) | 0.78 µg/mL (≈ 1.73 µM) | MIC (Bacillus subtilis PCI219; [18]): < 0.2 µg/mL; MIC [3]: 0.78 µg/mL (≈ 1.73 µM); MIC [5]: 0.78 µg/mL (≈ 1.73 µM); MIC [6]: 0.78 µg/mL (≈ 1.73 µM); MIC (Escherichia coli K-12; Escherichia coli, K12, 41 h): 0.78 µg/mL (≈ 1.73 µM); MIC [7]: 0.39 µg/mL (≈ 0.864 µM); MIC (Mycobacterium 607): 0.39 µg/mL (≈ 0.864 µM); MIC (Proteus vulgaris OX19): < 0.2 µg/mL; MIC [8]: 0.78 µg/mL (≈ 1.73 µM); MIC ([9]; Pseudomonas aeruginosa, GN315, 41 h): > 100 µg/mL; MIC [10]: 1.56 µg/mL (≈ 3.45 µM); MIC (Shigella sonnei JS11746): 0.78 µg/mL (≈ 1.73 µM); MIC [11, 20]: < 0.2 µg/mL; antibacterial potency (assumed reference value) (Bacillus subtilis; assumed value of the standard): 1000 units/mg; ED50 [12]: 1.15 mg/kg; antibacterial activity [13]: high antibacterial activity against some kanamycin-resistant bacteria and Pseudomonas aeruginosa
O=S(=O)(O)CNC[C@@H]1CC[C@@H](NCS(=O)(=O)O)[C@@H](O[C@H]2[C@H](O)[C@@H](O[C@H]3O[C@H](CO)[C@@H](O)[C@H](NCS(=O)(=O)O)[C@H]3O)[C@H](NCS(=O)(=O)O)C[C@@H]2NCS(=O)(=O)O)O1 [DKB-penta-N-methanesulfonic acid Na salt, 3',4'-dideoxykanamycin B-penta-N-methanesulfonic acid sodium salt] | – | – | – | – | – | – | – | – | – | – | – | – | – | – | – | – | – | 100 µg/mL | 100 µg/mL | 0.39 µg/mL | MIC (Bacillus subtilis PCI219; Bacillus subtilis, PCI219, 41 h): 0.2 µg/mL; MIC [7]: 0.39 µg/mL; MIC (Proteus vulgaris OX19): 0.39 µg/mL; MIC [9, 19]: > 100 µg/mL; MIC [10]: 3.12 µg/mL; MIC (Shigella sonnei JS11746): 1.56 µg/mL; MIC ([11]; Staphylococcus aureus, 41 h): < 0.2 µg/mL; antibacterial potency (Bacillus subtilis): 400 units/mg; ED50 [12]: 1.9 mg/kg; LD50 (in vivo): > 5000 mg/kg
